Results as given in patent US7138361B2, “Herbicidal heterocycles” (E. I. du Pont de Nemours and Company, priority 2000, dated 2006).

Columns and labels:
Format in all cases: in vivo
[1] = test system: johnsongrass (Sorghum halepense); assay: Test C preemergence; settings: for Plant response rating (0 to 100), Johnsongrass: visual evaluation after 12 to 14 days
In short: (§1)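 Formulation: non-phytotoxic solvent mix incl. surfactant. Pre: applied right after planting. Post: 1–4-leaf seedlings. Read: visual 0–100, day 12–14, greenhouse.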

corn (Zea mays) = assay: Test C preemergence; settings: for Plant response rating (0 to 100), Corn: visual evaluation after 12 to 14 days
In short: as §1

[2] = test system: velvetleaf (Abutilon theophrasti); assay: Test C preemergence
In short: as §1

[3] = test system: morningglory (Ipomoea hederacea); assay: Test C preemergence
In short: as §1

[4] = test system: crabgrass (Digitaria sanguinalis); assay: Test C preemergence; settings: for Plant response rating (0 to 100), Crabgrass: visual evaluation after 12 to 14 days
In short: as §1

[5] = test system: pigweed (Amaranthus retroflexus); assay: Test C preemergence
In short: as §1

Sunflower [6] = assay: Test C preemergence; settings: Rate 125 g/ha; scale 0 to 100, 0 no effect, 100 complete control
[7] = test system: yellow nutsedge (Cyperus esculentus); assay: Test C preemergence
In short: as §1

[8] = test system: common ragweed (Ambrosia elatior); assay: Test C preemergence
In short: as §1

[9] = test system: cocklebur (Xanthium strumarium); assay: Test C preemergence; settings: for Plant response rating (0 to 100), Cocklebur: visual evaluation after 12 to 14 days
In short: as §1

kochia (Kochia scoparia) = assay: Test C preemergence; settings: for Plant response rating (0 to 100), Kochia: visual evaluation after 12 to 14 days
In short: as §1

[10] = test system: bermudagrass (Cynodon dactylon); assay: Test C preemergence; settings: for Plant response rating (0 to 100 where 0 is no effect and 100 is complete control), Bermudagrass: visual evaluation after 12 to 14 days
In short: as §1

soybean (Glycine max) = assay: Test C preemergence
In short: as §1

Nightshade = assay: Test C preemergence
[11] = test system: woolly cupgrass (Eriochloa villosa); assay: Test C preemergence; settings: for Plant response rating (0 to 100), Cupgrass, Woolly: visual evaluation after 12 to 14 days
In short: as §1

[12] = test system: giant foxtail (Setaria faberii); assay: Test C preemergence; settings: for Plant response rating (0 to 100), Foxtail, Giant: visual evaluation after 12 to 14 days
In short: as §1

[13] = test system: Surinam grass (Brachiaria decumbens); assay: Test C preemergence; settings: for Plant response rating (0 to 100), Surinam grass: visual evaluation after 12 to 14 days
In short: as §1

[14] = test system: lambsquarters (Chenopodium album); assay: Test C preemergence
In short: as §1

[15] = test system: goosegrass (Eleusine indica); assay: Test C preemergence; settings: for Plant response rating (0 to 100), Goosegrass: visual evaluation after 12 to 14 days
In short: as §1

rice (Oryza saliva) = assay: Test C flooded paddy test; settings: for Rice plant response rating: Flooded Paddy, scale 0 to 100, 0 no effect, 100 complete control; for Plant response rating, Rice: flooded paddy test, scale 0 to 100 (0 no effect, 100 complete control)
In short: (§2)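 Rice and three paddy weeds were grown to the 2-leaf stage under flooded conditions, then treated and kept in a greenhouse for 12–14 days. Response was rated visually against untreated controls on a 0–100 scale, where 100 is complete control.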

[16] = test system: barnyardgrass (Echinochloa crus-galli); assay: Test C flooded paddy test; settings: for Barnyardgrass plant response rating: Flooded Paddy, scale 0 to 100, 0 no effect, 100 complete control; for Plant response rating, Barnyardgrass: flooded paddy test, scale 0 to 100 (0 no effect, 100 complete control)
In short: as §2

Sunflower [17] = assay: Test C preemergence; settings: Rate 500 g/ha, visual evaluation after 12 to 14 days
[18] = Rate 125 g/ha, scale 0 to 100, 0 no effect, 100 complete control
[19] = preemergence, Rate 62 g/ha, scale 0 to 100
[20] = preemergence, Rate 500 g/ha, visual evaluation after 12 to 14 days
[21] = preemergence, Rate 250 g/ha, scale 0 to 100, 0 no effect, 100 complete control

`COc1cccc(N2CCC(n3ccc(C(C)(C)C)n3)C2=O)c1` (stereo not drawn) [Compound 87] was tested, and the “Plant response rating, Johnsongrass” value [1, 18] was 90, the “Plant response rating, Johnsongrass” value [1, 19] was 90 and the “Plant response rating (0 to 100), Johnsongrass” value ([1]; preemergence, Rate 250 g/ha) was 100. The “Plant response rating (0 to 100), Johnsongrass” value ([1]; preemergence, Rate 500 g/ha) was 100, the “Plant response rating, Corn” value (corn (Zea mays); [18]) was 70 and the “Plant response rating, Corn” value (corn (Zea mays); [19]) was 40. The “Plant response rating (0 to 100), Corn” value (corn (Zea mays); preemergence, Rate 250 g/ha) was 70, the “Plant response rating (0 to 100), Corn” value (corn (Zea mays); preemergence, Rate 500 g/ha) was 80 and the “Plant response rating, Velvetleaf” value [2, 18] was 10. For the same compound, the “Plant response rating, Velvetleaf” value [2, 19] was 10, the “Plant response rating (0 to 100), Velvetleaf” value [2, 20] was 20 and the “Plant response rating, Velvetleaf” value [2, 21] was 10. The “Plant response rating, Morningglory” value [3, 18] was 0, the “Plant response rating, Morningglory” value [3, 19] was 0 and the “Plant response rating (0 to 100), Morningglory” value [3, 20] was 0. For the same compound, the “Plant response rating, Morningglory” value [3, 21] was 0, the “Plant response rating, Crabgrass” value [4, 18] was 100 and the “Plant response rating, Crabgrass” value [4, 19] was 100. The “Plant response rating (0 to 100), Crabgrass” value ([4]; preemergence, Rate 250 g/ha) was 100, the “Plant response rating (0 to 100), Crabgrass” value ([4]; preemergence, Rate 500 g/ha) was 100 and the “Plant response rating, Pigweed” value [5, 18] was 0. For the same compound, the “Plant response rating, Pigweed” value [5, 19] was 0, the “Plant response rating (0 to 100), Pigweed” value [5, 20] was 100 and the “Plant response rating, Pigweed” value [5, 21] was 100. For the same compound, the “Plant response rating, Sunflower” value (Sunflower [6]) was 20, the “Plant response rating, Nutsedge” value [7, 18] was 20 and the “Plant response rating, Nutsedge” value [7, 19] was 20. The “Plant response rating (0 to 100), Nutsedge” value [7, 20] was 20, the “Plant response rating, Nutsedge” value [7, 21] was 20 and the “Plant response rating, Ragweed, Common” value [8, 18] was 0. The “Plant response rating, Ragweed, Common” value [8, 19] was 0, the “Plant response rating (0 to 100), Ragweed, Common” value [8, 20] was 0 and the “Plant response rating, Ragweed, Common” value [8, 21] was 0. The “Plant response rating, Cocklebur” value [9, 18] was 0, the “Plant response rating, Cocklebur” value [9, 19] was 0 and the “Plant response rating (0 to 100), Cocklebur” value ([9]; preemergence, Rate 250 g/ha) was 0. For the same compound, the “Plant response rating (0 to 100), Cocklebur” value ([9]; preemergence, Rate 500 g/ha) was 0, the “Plant response rating, Kochia” value (kochia (Kochia scoparia); [18]) was 100 and the “Plant response rating, Kochia” value (kochia (Kochia scoparia); [19]) was 100. For the same compound, the “Plant response rating (0 to 100), Kochia” value (kochia (Kochia scoparia); preemergence, Rate 250 g/ha) was 100, the “Plant response rating (0 to 100), Kochia” value (kochia (Kochia scoparia); preemergence, Rate 500 g/ha) was 100 and the “Plant response rating, Bermudagrass” value [10, 18] was 100. For the same compound, the “Plant response rating, Bermudagrass” value [10, 19] was 100, the “Plant response rating (0 to 100 where 0 is no effect and 100 is complete control), Bermudagrass” value ([10]; preemergence, Rate 250 g/ha) was 100 and the “Plant response rating (0 to 100 where 0 is no effect and 100 is complete control), Bermudagrass” value ([10]; preemergence, Rate 500 g/ha) was 100. The “Plant response rating, Soybean” value (soybean (Glycine max); [18]) was 20, the “Plant response rating, Soybean” value (soybean (Glycine max); [19]) was 0 and the “Plant response rating (0 to 100), Soybean” value (soybean (Glycine max); [20]) was 30. The “Plant response rating, Soybean” value (soybean (Glycine max); [21]) was 20, the “Plant response rating, Nightshade” value (Nightshade; Rate 62 g/ha, scale 0 to 100) was 0 and the “Plant response rating, Nightshade” value (Nightshade; [18]) was 10. The “Plant response rating, Nightshade” value (Nightshade; Rate 250 g/ha, scale 0 to 100, 0 no effect, 100 complete control) was 60, the “Plant response rating, Cupgrass, Woolly” value [11, 18] was 100 and the “Plant response rating, Cupgrass, Woolly” value [11, 19] was 90. For the same compound, the “Plant response rating (0 to 100), Cupgrass, Woolly” value ([11]; preemergence, Rate 250 g/ha) was 100, the “Plant response rating (0 to 100), Cupgrass, Woolly” value ([11]; preemergence, Rate 500 g/ha) was 100 and the “Plant response rating, Foxtail, Giant” value [12, 18] was 100. For the same compound, the “Plant response rating, Foxtail, Giant” value [12, 19] was 30, the “Plant response rating (0 to 100), Foxtail, Giant” value ([12]; preemergence, Rate 250 g/ha) was 100 and the “Plant response rating (0 to 100), Foxtail, Giant” value ([12]; preemergence, Rate 500 g/ha) was 100. The “Plant response rating, Surinam grass” value [13, 18] was 100, the “Plant response rating, Surinam grass” value [13, 19] was 40 and the “Plant response rating (0 to 100), Surinam grass” value ([13]; preemergence, Rate 250 g/ha) was 100. For the same compound, the “Plant response rating (0 to 100), Surinam grass” value ([13]; preemergence, Rate 500 g/ha) was 100, the “Plant response rating, Lambsquarters” value [14, 18] was 100 and the “Plant response rating, Lambsquarters” value [14, 19] was 100. The “Plant response rating (0 to 100), Lambsquarters” value [14, 20] was 100, the “Plant response rating, Lambsquarters” value [14, 21] was 100 and the “Plant response rating, Goosegrass” value [15, 18] was 100. The “Plant response rating, Goosegrass” value [15, 19] was 100, the “Plant response rating (0 to 100), Goosegrass” value ([15]; preemergence, Rate 250 g/ha) was 100 and the “Plant response rating (0 to 100), Goosegrass” value ([15]; preemergence, Rate 500 g/ha) was 100. The “Rice plant response rating” value (rice (Oryza saliva); Rate 250 g/ha) was 20, the “Rice plant response rating” value (rice (Oryza saliva); Rate 500 g/ha) was 80 and the “Plant response rating, Rice” value (rice (Oryza saliva); Rate 62 g/ha) was 0. For the same compound, the “Plant response rating, Rice” value (rice (Oryza saliva); Rate 125 g/ha) was 20, the “Barnyardgrass plant response rating” value ([16]; Rate 250 g/ha) was 70 and the “Barnyardgrass plant response rating” value ([16]; Rate 500 g/ha) was 100. The “Plant response rating, Barnyardgrass” value ([16]; Rate 62 g/ha) was 0, the “Plant response rating, Barnyardgrass” value ([16]; Rate 125 g/ha) was 70 and the “Plant response rating (0 to 100), Sunflower” value (Sunflower [17]) was 30.
